{"source": "patent US20170226507A1", "about": "“COORDINATE CONTROL OF PATHOGENIC SIGNALING BY THE MIR-130/301 FAMILY IN PULMONARY HYPERTENSION AND FIBROPROLIFERATIVE DISEASES” (The Brigham and Women's Hospital, Inc., priority 2014, published 2017)", "key": {"STAT3": {"system": "STAT3", "test": "STAT3 phosphorylation in PASMCs (conditioned media from PAECs or endothelin-1; immunoblot)", "format": "cell-based, human", "details": "conditioned media from transfected PAECs (mimic: normoxic, tiny-LNA: hypoxic conditioning)", "experimental": "(FIG. 40A) A schematic diagram of co-culture experiments: conditioned media from transfected PAECs (miRNA, anti-miRNA, tiny-LNA or siRNA under normoxic or hypoxic conditions) were filtered and applied onto naïve PASMCs cultured in matrigel. At specific times, PASMCs or PASMC-matrigel cultures were arrested and analyzed for STAT3 activation (phosphorylation) or contraction, respectively.\n50000 PASMC were embedded in 100 ul of matrix gel as previous described (Gagiolli et al) and plated into well of a 96 well plate. After 1 h at 37° C., these matrices were overlaid with 100 ul of conditioned PAECs serum-free medium (transfected with siRNA, miRNA or anti-miRNA and supplemented with Ambriesentan 10 uM). Every 12 h, medium was changed and at day 4 the gels were photographed and the relative diameter of the well and the gel were measured using ImageJ. The percentage contraction was calculated using the formula 100*(well diameter−gel diamter)/well diameter. For the co-culture experiment, conditioned media from PAEC transfected as indicated were applied on PASMCs or Fibroblast previously starved (24 h). Cells were collected at different time and analyzed by western blotting.\n(§1) Cells were lysed in RIPA buffer (Santa Cruz Biotechnology) and the protein concentration determined using a Bradford assay (Biorad). Protein lysate ([…]) were resolved by SDS-PAGE and transferred onto a PVDF membrane (Biorad). Membranes were blocked in 5% non-fat milk in TN buffer (50 mM Tris-HCl pH 7.4, 150 mM NaCl) and incubated in the presence of the primary and then secondary antibodies. After washing in TN buffer containing 0.1% Tween, immunoreactive bands were visualized with the ECL system (Amersham Biosciences). […] Primary antibodies for STAT3 (#9139) and P-STAT3 (Tyr-705; #9145) were purchased from Cell Signaling. Primary antibodies against actin (ab 3280), was obtained from Abcam. Appropriate secondary antibodies (anti-rabbit and anti-mouse) coupled to HRP were used (Santa Cruz Biotechnology)."}, "PAECs": {"system": "PAECs", "test": "Gene/miRNA expression in transfected or drug-treated PAECs (immunoblotting, RT-qPCR)", "format": "cell-based, human", "from_the_text": "Pre-miRNA oligonucleotides (pre-miR-130a, pre-miR-204, pre-miR-424, and pre-miR-503 and negative control pre-miR-NC1 and premiR-NC2, Life Technologies), anti-miRNAs oligonucleotides (anti-miR-130a and anti-miR-NC, ThermoScientific), tiny LNA oligonucleotides (tiny-130: 5′-[…]-3′ (SEQ ID NO: 3), and tiny-NC 5′-[…]-3′ (SEQ ID NO: 51), Exiqon), siRNAs (PPARγ and scrambled control, Santa Cruz Biotechnology; HIF-1α, HIF-2α, and scrambled control, Life Technologies) were commercially purchased. PAECs and PASMCs were plated and transfected 24 h later at 70-80% confluence using pre-miRNA (5 nM), anti-miRNA (20 nM), tiny-LNA (20 nM) or siRNA (25 nM) with Lipofectamine 2000 reagent (Life Technologies), according to the manufacturers' instructions.\nPrimary human pulmonary arterial endothelial cells (PAECs) were purchased and propagated in EGM-2 cell culture media (Lonza). Experiments were performed at passages 3 to 6. Primary human pulmonary arterial smooth muscle cells (PASMCs) were purchased and propagated in SmGM-2 cell culture media (Lonza). Experiments were performed at passages 3 to 9. HEK293T cells (American Type Culture Collection) were used and cultivated in DMEM containing 10% fetal bovine serum (FBS). Cells were cultured at 37° C. in a humidified 5% CO2 atmosphere. A modular hypoxia chamber at 0.2% oxygen, 94.8% nitrogen and 5% carbon dioxide was used during 24 h for hypoxic conditions. Cultured cells were exposed to recombinant human IL-1α at 10 ng·mL-1 (Peprotech). Recombinant human IL-6 (Peprotech) was used at 100 ng·mL-1. Rosiglitazone (Sigma) was used at 10 μM.\nMature miRNA expression was evaluated using TaqMan MicroRNA Assays (Life Technologies/Applied Biosystems) and the Applied Biosystems 7900HT Fast Real Time PCR device (Life Technologies/Applied Biosystems). Expression levels were normalized to RNU48 or snoR55 for human or mouse experiments, respectively, and calculated using the comparative Ct method (2^−ΔΔCt) as we previously described (1).\nMessenger RNAs were reverse transcribed using the Multiscript RT kit (Life Technologies) to generate cDNA. cDNA was amplified via fluorescently labeled Taqman primer sets using an Applied Biosystems 7900HT Fast Real Time PCR device, as we previously described (1). Fold-change of RNA species was calculated using the formula (2^−ΔΔCt), normalized to actin expression.\nas §1, with “3280), α-smooth-muscle-actin (ab 32575), CD31 (ab28364), and PCNA (ab 29) were” for “3280), was”\nPre-miRNA oligonucleotides (pre-miR-130a and negative control pre-miR-NC1 and premiR-NC2), anti-miRNAs oligonucleotides (anti-miR-130a and anti-miR-NC), and custom designed tiny LNA oligonucleotides (tiny-130: 5′-[…]-3′ (SEQ ID NO: 3), and tiny-NC 5′-[…]-3′ (SEQ ID NO: 51)) were purchased from Life Technologies/Ambion, ThermoScientific/Dharmacon, and Exiqon, respectively. siRNAs for PPARγ and scrambled control were purchased from Santa Cruz Biotechnology. PAEC and PASMC were plated and transfected 24 h later at 70-80% confluence using pre-miRNA (5 nM), anti-miRNA (20 nM), tiny-LNA (20 nM) or siRNA (25 nM) and Lipofectamine 2000 reagent (Life Technologies), according to the manufacturers' instructions. […]"}, "[1]": {"details": "transcripts 48 h after transfection"}}}
{"substance": "tiny-LNA-130: fully LNA-modified tiny LNA oligonucleotide 5′-ATTGCACT-3′ (SEQ ID NO: 3) complementary to the seed region of the miR-130/301 family (all LNA, backbone and methylation of C not given here)", "values": [{"measurement": "STAT3 phosphorylation in PASMCs", "setting": "STAT3", "result": "abrogated"}, {"measurement": "PPARγ expression", "setting": "PAECs; immunoblotting, densitometry", "result": "increased"}, {"measurement": "downstream gene/subordinate miRNA alterations (PPARγ, apelin, miR-424, miR-503, FGF2)", "setting": "PAECs; normoxia or hypoxia, compared with anti-miR-130a", "result": "reversed these downstream gene/subordinate miRNA alterations to a greater extent than inhibition of miR-130a alone"}, {"measurement": "collagen, CTGF, and LOX", "setting": "PAECs; tiny-LNA-130: stiffness-mediated up-regulation", "result": "reversed"}, {"measurement": "CCND1 expression", "setting": "PAECs; [1]", "result": "decreased"}, {"measurement": "CDKN1A, CDKN1B and CDKN2A expression", "setting": "PAECs; [1]", "result": "increased"}, {"measurement": "gene expression changes in VEGFA, EDN1 and NOS3", "setting": "PAECs; vs tiny-LNA-NC, transcript in hypoxia, protein in normoxia", "result": "reversed these gene expression changes"}]}
